Experiment [1] deals with P388 mouse leukemia cells. Description: Activity against tumor cell growth (P388, MTT, 72 h). Format: cell-based. As to conditions: read-out: IC50 (50% growth inhibition concentration). Put shortly: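 P388 cells at 1.5×10^5 cells/ml in RPMI1640 with 10% FBS, 2 mM glutamine and 5 μM 2-hydroxyethyldisulfide; DMSO-dissolved compound diluted in medium, 72 h at 37 °C, 5% CO2. MTT added for 3 h, formazan dissolved in HCl-isopropanol, A540 read. IC50 from absorbance ratio versus untreated cells.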

In a further experiment the test system is Sarcoma-180 cells. The experiment in a line: Antineoplastic activity, mice having Sarcoma-180 cells transplanted subcutaneously. Format: in vivo, mouse (female, CDR strain). As to conditions: Mus musculus, Sarcoma-180, iv, 144 h, tumor weighed six days after dosage, read-out: T/C (average tumor weight, dosed vs. solvent-dosed control); for response vs control in vivo at 0.25 mg/kg: i.v. 0.25 mg/kg single dose; for response vs control in vivo at 0.5 mg/kg: i.v. 0.5 mg/kg single dose. On the procedure: (§1) The test compound was dissolved in dimethylsulfoxide, and the solution was adequately diluted with 10% Emulfore EL620(produced by Rhone Poulenc Co.) to prepare the test compound solution. The antineoplastic activity was evaluated as below.
To the lateral region of a female mouse (CDR strain, 5 to 6 week age), 3.6×10^6 to 5×10^6 Sarcoma-180 cells were transplanted subcutaneously. Next day, the test medicine solution was injected into the tail vein in a single dose. Eight to twelve mice were employed for the solvent-dosed control group, and five mice were employed for the dosed group. Six days after the dosage, the tumor was cut out, and the weight thereof was measured. The antineoplastic effect was evaluated by the ratio (T/C) of the average tumor weight of the dosed group (T) to the average tumor weight of the solvent-dosed control group (C).

In a further experiment the test system is Colon-26 cells. Description: Antineoplastic activity, mice having Colon-26 cells transplanted subcutaneously. Particulars: Mus musculus, Colon 26, iv, 168 h, read-out: T/C (average tumor weight, dosed vs. solvent-dosed control); for response vs control in vivo at 0.5 mg/kg: i.v. 0.5 mg/kg single dose on sixth day. The format is in vivo, mouse (female, CDF1 strain). The protocol:
as §1
To the lateral region of a female mouse (CDF1 strain, 8 to 12 week age), 1×10^6 Colon-26 cells were transplanted subcutaneously. On the sixth day after the transplantation, the test medicine solution-was injected into the tail vein in a single dose. Seven to twelve mice were employed for the solvent-dosed control group, and five mice were employed for the dosed group. One week after the dosage, the tumor was cut out, and the weight thereof was measured. The antineoplastic effect was evaluated by the ratio (T/C) of the average tumor weight of the dosed group (T) to the average tumor weight of the solvent-dosed control group (C).

A further experiment deals with P388 cells. The experiment in a line: Antineoplastic activity, mice having P388 cells transplanted in abdominal cavity. As to conditions: next day after transplantation, >=130% effective. The format is in vivo, mouse (female, CDF1 strain). The protocol:
as §1
To the abdominal cavity of a female mouse (CDF1 strain, 8 to 9 week age), 1×10^6 P388 cells were transplanted. Next day, the test medicine solution was injected intraperitonealy in a single dose. Five to eight mice were employed for the solvent-dosed control group, and two mice were employed for each of the dosed groups. The antineoplastic effect was evaluated by the ratio (T/C, %) of the average survival days of the dosed group (T) to the average survival days of the solvent-dosed control group(C). The T/C ratio of 130% or more is evaluated to be effective.
"Cured": Survived for 60 days or longer

Setting [2] is: P388 mouse leukemia cells, 72 h, 37° C., MTT.
[3] abbreviates: i.v. 0.25 mg/kg single dose on sixth day, tumor weighed one week after dosage.
The mark [4] stands for this setting: tumor weighed one week after dosage.

Values after ≈ are worked out from the molar mass of the structure shown. Read-outs that look alike come from different tables or passages of the source.

Take `COC(=O)c1c(C(F)(F)F)[nH]c2c(O)cc3c(c12)C(CCl)CN3C(=O)c1cc2cc(NC(=O)c3cc4cc(OC)c(OC)c(OC)c4[nH]3)ccc2[nH]1` (stereo not shown) [Example 13, Methyl 1-chloromethyl-5-hydroxy-7-trifluoromethyl-3-[5-[(5,6,7-trimethoxy-1H-indol-2-ylcarbonyl)amino]-1H-indol-2-ylcarbonyl]-1,2,3,6-tetrahydropyrrolo[3,2-e]indole-8-carboxylate]: in experiment [1] (setting [2]), the IC50 was found to be 0.21 ng/mL (≈ 0.284 nM). The values for the response vs control in vivo at 0.25 mg/kg with Sarcoma-180 cells and with Colon-26 cells (setting [3]) were 11% and 17%, respectively.

`COC(=O)c1c(C(F)(F)F)[nH]c2c(O)cc3c(c12)C(CCl)CN3C(=O)c1cc2cc(NC(=O)c3cc4c(OC)c(OC)c(OC)cc4[nH]3)ccc2[nH]1` (stereo not shown) [Example 14, Methyl 1-chloromethyl-5-hydroxy-7-trifluoromethyl-3-[5-[(4,5,6-trimethoxy1H-indol-2-ylcarbonyl)amino]-1H-indol-2-ylcarbonyl]-1,2,3,6-tetrahydropyrrolo[3,2-e]indole-8-carboxylate]: the IC50 in experiment [1] (setting [2]) was determined as 0.1 ng/mL (≈ 0.135 nM). The values for the response vs control in vivo at 0.5 mg/kg in the experiment with Sarcoma-180 cells and in the experiment with Colon-26 cells (setting [4]) were 7% and 5%, respectively.

Take `COC(=O)c1c(C(F)(F)F)[nH]c2c(O)cc3c(c12)C(CCl)CN3C(=O)c1cc2cc(NC(=O)c3cc4ccccc4cn3)ccc2[nH]1` (stereo not shown) [Example 17, Methyl 1-chloromethyl-5-hydroxy-3-[5-[(isoquinolin-3-ylcarbonyl)amino]-1H-indol-2-ylcarbonyl]-7trifluoromethyl-1,2,3,6-tetrahydropyrrolo[3,2-e]indole-8-carboxylate]: the IC50 in experiment [1] (setting [2]) was 0.09 ng/mL (≈ 0.136 nM). For the same compound, the response vs control in vivo at 0.25 mg/kg with Sarcoma-180 cells was determined as 25%; in the experiment with Colon-26 cells (setting [3]) it was 18%.

On to `COC(=O)c1c(C(F)(F)F)[nH]c2c1C13CC1CN(C(=O)c1cc4cc(OC)ccc4[nH]1)C3=CC2=O` (stereo not shown) [Example 22, Methyl 2-(5-methoxy-1H-indol-2-ylcarbonyl)-6-trifluoromethyl-1,2,8,8a-tetrahydrocyclopropa[c]pyrrolo[3,2-e]indole-4 (5H)-one-7-carboxylate], for which the IC50 in experiment [1] (setting [2]) amounted to 0.23 ng/mL (≈ 0.474 nM). Moreover, in the experiment with P388 cells (i.p. 0.125 mg/kg single dose), the “T/C (average survival days, dosed vs. solvent-dosed control)” value was 169%.

As to `COC(=O)c1c(C(F)(F)F)[nH]c2c(O)cc3c(c12)C(CCl)CN3C(=O)c1cc2cc(OC)ccc2[nH]1` (stereo not shown) [Example 8, Methyl 1-chloromethyl-5-hydroxy-3-(5-methoxy-1H-indol-2-ylcarbonyl)-7-trifluoromethyl-1,2,3,6-tetrahydropyrrolo[3,2-e]indole-8-carboxylate], in experiment [1] (setting [2]), the IC50 worked out at 0.21 ng/mL (≈ 0.402 nM). In the experiment on P388 cells (i.p. 1.0 mg/kg single dose), the “T/C (average survival days, dosed vs. solvent-dosed control)” value is on record as 198%.

Regarding `COC(=O)c1c(C(F)(F)F)[nH]c2c(O)cc3c(c12)C(CCl)CN3C(=O)c1cc2cc(NC(=O)c3cc4ccccc4o3)ccc2[nH]1` (stereo not shown) [Example 10, Methyl 3-[5-[(benzofuran-2-ylcarbonyl)amino]-1H-indol-2-ylcarbonyl]-1-chloromethyl-5-hydroxy-7-trifluoromethyl-1,2,3,6-tetrahydropyrrolo[3,2-e]indole-8-carboxylate], the IC50 in experiment [1] (setting [2]) was determined as 0.52 ng/mL (≈ 0.799 nM). Further, the response vs control in vivo at 0.5 mg/kg in the experiment on Sarcoma-180 cells and in the experiment on Colon-26 cells (setting [4]) was 15% in each case.

For the compound `COC(=O)c1c(C(F)(F)F)[nH]c2c(O)cc3c(c12)C(CCl)CN3C(=O)c1cc2cc(OC)c(OC)c(OC)c2[nH]1` (stereo not shown) [Example 6, methyl 1-chloromethyl-5-hydroxy-7-trifluoromethyl-3-(5,6,7-trimethoxy-1H-indol-2-ylcarbonyl)-1,2,3,6-tetrahydropyrrolo[3,2-e]indole-8-carboxylate], the IC50 in experiment [1] (setting [2]) is 0.24 ng/mL (≈ 0.412 nM). In the experiment with P388 cells (i.p. 0.5 mg/kg single dose), the “T/C (average survival days, dosed vs. solvent-dosed control)” value is on record as 206%.

In the case of `COC(=O)c1c(C(F)(F)F)[nH]c2c(O)cc3c(c12)C(CCl)CN3C(=O)c1cc2cc(NC(=O)c3cc4c(OC)c(OC)c(OC)cc4cn3)ccc2[nH]1` (stereo not shown) [Example 18, Methyl 1-chloromethyl-5-hydroxy-7-trifluoromethyl-3-[5-[(5,6,7-trimethoxyisoquinolin-3-ylcarbonyl)amino]-1H-indol-2-ylcarbonyl]-1,2,3,6-tetrahydropyrrolo[3,2-e]indole-8-carboxylate], the IC50 in experiment [1] (setting [2]) is 0.09 ng/mL (≈ 0.12 nM). Moreover, the response vs control in vivo at 0.25 mg/kg in the experiment with Sarcoma-180 cells was 25%; in the experiment with Colon-26 cells (setting [3]), 7%.

`COC(=O)c1c(C(F)(F)F)[nH]c2c(O)cc3c(c12)C(CCl)CN3C(=O)c1cc2cc(-c3cc4ccccc4o3)ccc2[nH]1` (stereo not shown) [Example 12]: the response vs control in vivo at 1 mg/kg in the experiment on Sarcoma-180 cells (i.v. 1.0 mg/kg single dose) came out at 11%; in the experiment with Colon-26 cells (i.v. 1.0 mg/kg single dose on sixth day, tumor weighed one week after dosage), 16%.

For `COC(=O)c1c(C(F)(F)F)[nH]c2c(O)cc3c(c12)[C@H](CCl)CN3C(=O)c1cc2cc(NC(=O)Nc3ccc4[nH]c(C(=O)N5C[C@@H](CCl)c6c5cc(O)c5[nH]c(C(F)(F)F)c(C(=O)OC)c65)cc4c3)ccc2[nH]1` [Example 108, (S,S)-3-3'-[Carbonylbis(imino-1H-indol-5,2-dicarbonyl)]bis-[1-chloromethyl-5-hydroxy-7-trifluoromethyl-1,2,3,6-tetrahydropyrrolo[3,2-e]indole-8-carboxylic acid methyl ester]], the IC50 in experiment [1] (setting [2]) turned out to be 0.007 ng/mL (≈ 0.00673 nM). In addition, in the experiment on Colon-26 cells (i.v. 0.0156 mg/kg single dose on sixth day, tumor weighed one week after dosage), the response vs control in vivo at 0.0156 mg/kg turned out to be 6%.

For the compound `COC(=O)c1c(C(F)(F)F)[nH]c2c(OC(=O)N3CCN(C)CC3)cc3c(c12)C(CCl)CN3C(=O)c1cc2cc(OC)c(OC)c(OC)c2[nH]1` (stereo not shown) [Example 46], in experiment [1] (Mus musculus, P388, 72 h), the IC50 stood at 22 ng/mL (≈ 31.1 nM). Also, the “T/C (average survival days, dosed vs. solvent-dosed control)” value with P388 cells (i.p. 4 mg/kg single dose) came to 221%.

For `COC(=O)c1c(C(F)(F)F)[nH]c2c(O)cc3c(c12)C(CCl)CN3C(=O)c1cc2cc(NC(=O)c3cnc4ccccc4c3)ccc2[nH]1` (stereo not shown) [Example 16, Methyl 1-chloromethyl-5-hydroxy-3-[5-[(quinoline-3-ylcarbonyl)amino]-1H-indol-2-ylcarbonyl]-7-trifluoromethyl-1,2,3,6-tetrahydropyrrolo[3,2-e]indole-8-carboxylate], the IC50 in experiment [1] (setting [2]) is 0.16 ng/mL (≈ 0.242 nM). The response vs control in vivo at 0.5 mg/kg in the experiment on Sarcoma-180 cells was 17%; in the experiment on Colon-26 cells (setting [4]), 16%.

On to `COC(=O)c1c(C(F)(F)F)[nH]c2c(OC(=O)N3CCN(C)CC3)cc3c(c12)[C@H](CCl)CN3C(=O)c1cc2cc(NC(=O)Nc3ccc4[nH]c(C(=O)N5C[C@@H](CCl)c6c5cc(OC(=O)N5CCN(C)CC5)c5[nH]c(C(F)(F)F)c(C(=O)OC)c65)cc4c3)ccc2[nH]1` [Example 109, (S,S)-3-3'-[Carbonylbis(imino-1H-indol-5,2-dicarbonyl)]bis-[1-chloromethyl-5-(4-methylpiperazin-1-ylcarbonyl)oxy-7-trifluoromethyl-1,2,3,6-tetrahydropyrrolo[3,2-e]indole-8-carboxylic acid methyl ester]], for which the IC50 in experiment [1] (Mus musculus, P388, 72 h) turned out to be 53 ng/mL (≈ 41 nM). Also, the response vs control in vivo at 0.25 mg/kg with Colon-26 cells amounted to 7%.

As to `COC(=O)c1c(C(F)(F)F)[nH]c2c(O)cc3c(c12)[C@H](CCl)CN3C(=O)c1cc2cc(NC(=O)c3cc4c(OC)cccc4o3)ccc2[nH]1` [Example 75, Methyl (1S)-1-chloromethyl-5-hydroxy-3-[5-(4-methoxybenzofuran-2-ylcarbonyl)amino-1H-indol-2-ylcarbonyl]-7-trifluoromethyl-1,2,3,6-tetrahydropyrrolo[3,2-e]indole-8-carboxylate], the IC50 in experiment [1] (setting [2]) came to 0.74 ng/mL (≈ 1.09 nM). Also, in the experiment on Colon-26 cells (setting [4]), the response vs control in vivo at 0.5 mg/kg amounted to 17%.

(Values after patent US5629430A, “Trifluoromethylpyrroloindolecarboxylic acid ester and process for production thereof” (Kyorin Pharmaceutical Co., Ltd., priority 1992, dated 1997).)
